# In patent US20220403345A1, “A MAMMALIAN-AVIAN CHIMERIC MODEL SYSTEM” (INNOVO MIMETICS LIMITED, priority 2019, published 2022):
# System: PEA2 ovarian cancer cell line
# Experiment: PEA2 matrix pellet tumor on egg CAM treated with Carboplatin
# Format: in vivo
# Details: 400 μg Carboplatin intravenous injection at E13; tumor excised from E16 egg
# Method: FIGS. 1A-1C are micrographs showing bright field images of a Matrigel® pellet formed comprising 3×10^5 cells of PEA2 ovarian cancer cell line. (1A) is an image of a liquid Matrigel® placed on ParafilmTM at 37° C. for 30 minutes and allowed to solidify before being placed on the CAM of an embryonic day 9 egg (E9; pellet circumference=3-5 mm). (1B) is an image of a tumor excised from an E16 egg following engraftment with a MATRIGEL® pellet, as shown in […]). […] (1C) is images of a low-passage ovarian cancer cell line derived from ascites liquid drained from a patient which was engrafted, and the resulting tumor was excised, fixed embedded, sectioned (7 μm) and stained with either (left) hematoxylin and eosin or (right) for expression of CD44 by immunohistochemistry (tumor diameter is 0.4 cm). The ovarian cancer cell line PEA2 was embedded in a matrix pellet by resuspending 3×10^5 PEA2 cells in 15 μl Matrigel®, on ice, and pipetting onto a solid surface (Parafilm) at 37° C. for 30 minutes (FIG. 1A). The Matrigel® pellet that formed was then placed on the CAM of an E9 egg, close to an underlying CAM blood vessel junction. It was not necessary to wound the CAM surface blood vessels in order to achieve a high rate of engraftment. […] Tissue sections (7 μm thick) were cut and analyzed by histology and immunohistochemistry for cell viability, proliferation and death (FIG. 1C).
smiles,measurement,value
N.N.O=C([O-])C1(C(=O)[O-])CCC1.[Pt+2] [Carboplatin],tumor size compared to the original MATRIGEL pellet,shrunk in size
